Test [1] concerns SDMA in HAP1 MTAP-deleted (MTAP-null) cell line (PRMT5 inhibition). The experiment in a line: SDMA in-cell western assay, HAP1 MTAP-deleted cell line. Conditions: for IC50 / IC90: Homo sapiens; for IC50: HAP1, read-out: Hap1 MTAP deleted IC50; for IC90: HAP1, read-out: Hap1 MTAP deleted IC90; for Hap1 MTAP intact/deleted ratio: ratio of SDMA IC50 in HAP1 MTAP-intact to HAP1 MTAP-deleted cell line.

For test [2], the system named is HAP1 MTAP-deleted cell line. Description: Viability assay, HAP1 MTAP-deleted cell line. It counts as cell-based. Conditions: Homo sapiens; viability assay, HAP1 MTAP-deleted cell line; read-out: Hap1 MTAP deleted viability IC50.
The test system of test [3] is SDMA in HAP1 MTAP-intact cell line (PRMT5 inhibition). The experiment in a line: SDMA in-cell western assay, HAP1 MTAP-intact cell line. Conditions: Homo sapiens, HAP1, read-out: Hap1 MTAP intact IC50.

15 compounds from patent US20250136594A1 (Tango Therapeutics, Inc., priority 2022, published 2025) can be followed below.

As for `Nc1ncc(NC(=O)C(=O)N(Cc2ccccc2)Cc2ccccc2Cl)c2[nH]ncc12` [Compound 87, N-(4-amino-1H-pyrazolo[4,3-c]pyridin-7-yl)-N′-benzyl-N′-[(2-chlorophenyl)methyl]oxamide], in test [1], the IC50 was under 0.005 µM, the IC90 is under 0.075 µM and the “Hap1 MTAP intact/deleted ratio” value is recorded as “B (IC50 ratio greater than or equal to 15 fold but lower than 30 fold)”. In addition, the IC50 in test [2] is under 0.1 µM. Further, in test [3], the IC50 lay within 0.005 to 0.05 µM.

With `Cc1cc(F)cnc1CN(Cc1ccc(F)cn1)C(=O)C(=O)Nc1cnc(N)c2cn[nH]c12` [Compound 88, N-(4-amino-1H-pyrazolo[4,3-c]pyridin-7-yl)-N′-[(5-fluoro-3-methyl-2-pyridyl)methyl]-N′-[(5-fluoro-2-pyridyl)methyl]oxamide], in test [1], the IC50 is under 0.005 µM, the IC90 was under 0.075 µM and the “Hap1 MTAP intact/deleted ratio” value was “B (IC50 ratio greater than or equal to 15 fold but lower than 30 fold)”. Also, in test [2], the IC50 is under 0.1 µM. Besides, the IC50 in test [3] lay within 0.005 to 0.05 µM.

Consider `Nc1ncc(NC(=O)C(=O)N(Cc2ccccn2)Cc2ccccn2)c2[nH]ncc12` [Compound 89, N-(4-amino-1H-pyrazolo[4,3-c]pyridin-7-yl)-N′,N′-bis(2-pyridylmethyl)oxamide], for which, in test [1], the IC50 was under 0.005 µM, the IC90 was under 0.075 µM and the “Hap1 MTAP intact/deleted ratio” value was “A (IC50 ratio greater than or equal to 30 fold)”. For the same compound, the IC50 in test [2] was under 0.1 µM. Moreover, the IC50 in test [3] was over 0.05 µM.

As for `Cc1ccccc1CN(Cc1ccccc1)C(=O)C(=O)Nc1cnc(C)c2cn[nH]c12` [Compound 90], in test [1], the IC50 is under 0.005 µM, the concentration for an effect of 90% (IC90) was over 0.125 µM and the “Hap1 MTAP intact/deleted ratio” value is given as “A (IC50 ratio greater than or equal to 30 fold)”. In test [2], the IC50 lay within 0.1 to 1 µM. Further, the IC50 in test [3] is over 0.05 µM.

For `Nc1ncc(NC(=O)C(=O)N(Cc2ccccn2)Cc2cccc(Cl)c2Cl)c2[nH]ncc12` [Compound 91, N-(4-amino-2H-pyrazolo[4,3-c]pyridin-7-yl)-N′—[(2,3-dichlorophenyl)methyl]-N′-(2-pyridylmethyl)oxamide], the IC50 in test [1] was under 0.005 µM; in test [2] it was under 0.1 µM; in test [3], under 0.005 µM. For the same compound, in test [1], the IC90 was under 0.075 µM. Also, the “Hap1 MTAP intact/deleted ratio” value in test [1] is recorded as “C (IC50 ratio of less than 15 fold)”.

In the case of `Nc1ncc(NC(=O)C(=O)N(Cc2ccccn2)Cc2cccc3c2CCCO3)c2[nH]ncc12` [Compound 92, N-(4-amino-2H-pyrazolo[4,3-c]pyridin-7-yl)-N′-(chroman-5-ylmethyl)-N′-(2-pyridylmethyl)oxamide], the figures for the IC50 in test [1], in test [2] and in test [3] were under 0.005 µM, under 0.1 µM and under 0.005 µM, respectively. In addition, in test [1], the IC90 is under 0.075 µM. Besides, in test [1], the “Hap1 MTAP intact/deleted ratio” value is on record as “C (IC50 ratio of less than 15 fold)”.

Turning to `CNc1cccc(CN(Cc2ccccc2)C(=O)C(=O)Nc2cnc(N)c3cn[nH]c23)c1` [Compound 93, N-(4-amino-1H-pyrazolo[4,3-c]pyridin-7-yl)-N′-benzyl-N′-[[3-(methylamino)phenyl]methyl]oxamide], in test [1], the IC50 is under 0.005 µM, the IC90 was under 0.075 µM and the “Hap1 MTAP intact/deleted ratio” value is given as “B (IC50 ratio greater than or equal to 15 fold but lower than 30 fold)”. Further, the IC50 in test [2] is under 0.1 µM. In addition, the IC50 in test [3] fell in the range of 0.005 to 0.05 µM.

`CC(C)CN(Cc1ccccc1F)C(=O)C(=O)Nc1cnc(N)c2cn[nH]c12` [Compound 94, N-(4-amino-1H-pyrazolo[4,3-c]pyridin-7-yl)-N′-[(2-fluorophenyl)methyl]-N′-isobutyl-oxamide]: the IC50 was under 0.005 µM in test [1], under 0.1 µM in test [2] and 0.005 to 0.05 µM in test [3]. The IC90 in test [1] is under 0.075 µM. Besides, the “Hap1 MTAP intact/deleted ratio” value in test [1] is “B (IC50 ratio greater than or equal to 15 fold but lower than 30 fold)”.

In the case of `Nc1ncc(NC(=O)C(=O)N(Cc2ccccc2)Cc2ccccc2C(F)(F)F)c2[nH]ncc12` [Compound 95, N-(4-amino-1H-pyrazolo[4,3-c]pyridin-7-yl)-N′-benzyl-N′-[[2-(trifluoromethyl)phenyl]methyl]oxamide], in test [1], the IC50 is under 0.005 µM, the 90% effect concentration (IC90) was under 0.075 µM and the “Hap1 MTAP intact/deleted ratio” value is on record as “C (IC50 ratio of less than 15 fold)”. Moreover, the IC50 in test [2] was under 0.1 µM. Further, in test [3], the IC50 is under 0.005 µM.

`CN(Cc1ccc(C(F)(F)F)cc1F)C(=O)C(=O)Nc1cnc(N)c2cn[nH]c12` [Compound 96, N-(4-Amino-1H-pyrazolo[4,3-c]pyridin-7-yl)-N′-[[2-fluoro-4-(trifluoromethyl)phenyl]methyl]-N′-methyl-oxamide]: in test [1], the IC50 fell in the range of 0.005 to 0.05 µM, the IC90 was over 0.125 µM and the “Hap1 MTAP intact/deleted ratio” value is reported as “A (IC50 ratio greater than or equal to 30 fold)”. In addition, in test [2], the IC50 is 0.1 to 1 µM. For the same compound, in test [3], the IC50 was over 0.05 µM.

For the compound `Nc1ncc(NC(=O)C(=O)N(Cc2ccccc2)C2CCOc3ccccc32)c2[nH]ncc12` (stereo not drawn) [Compound 97, N-(4-Amino-1H-pyrazolo[4,3-c]pyridin-7-yl)-N′-benzyl-N′-chroman-4-yl-oxamide], in test [1], the IC50 is under 0.005 µM, the IC90 is under 0.075 µM and the “Hap1 MTAP intact/deleted ratio” value was “B (IC50 ratio greater than or equal to 15 fold but lower than 30 fold)”. The IC50 in test [2] was under 0.1 µM. Also, in test [3], the IC50 fell in the range of 0.005 to 0.05 µM.

On to `Cc1ccc(CN(Cc2ccccc2)C(=O)C(=O)Nc2cnc(N)c3cn[nH]c23)c(C)c1` [Compound 98, N-(4-amino-1H-pyrazolo[4,3-c]pyridin-7-yl)-N′-benzyl-N′—[(2,4-dimethylphenyl)methyl]oxamide], for which the figures for the IC50 in test [1], in test [2] and in test [3] were under 0.005 µM, under 0.1 µM and 0.005 to 0.05 µM, respectively. The IC90 in test [1] was under 0.075 µM. Moreover, in test [1], the “Hap1 MTAP intact/deleted ratio” value was “B (IC50 ratio greater than or equal to 15 fold but lower than 30 fold)”.

Turning to `CCN(Cc1ccc(C(F)(F)C(F)(F)F)cc1C)C(=O)C(=O)Nc1cnc(N)c2cn[nH]c12` [Compound 99], in test [1], the IC50 is under 0.005 µM, the IC90 was under 0.075 µM and the “Hap1 MTAP intact/deleted ratio” value is given as “A (IC50 ratio greater than or equal to 30 fold)”. Also, in test [2], the IC50 is under 0.1 µM. The IC50 in test [3] was over 0.05 µM.

In the case of `CC(C)CN(Cc1ccccc1)C(=O)C(=O)Nc1cnc(N)c2cn[nH]c12` [Compound 101, N-(4-amino-1H-pyrazolo[4,3-c]pyridin-7-yl)-N′-benzyl-N′-isobutyl-oxamide], in test [1], the IC50 is under 0.005 µM, the IC90 was in the range of 0.075 to 0.125 µM and the “Hap1 MTAP intact/deleted ratio” value is “A (IC50 ratio greater than or equal to 30 fold)”. In addition, the IC50 in test [2] was under 0.1 µM. Besides, the IC50 in test [3] is over 0.05 µM.

Consider `Nc1ncc(NC(=O)C(=O)N(CCC(F)(F)F)Cc2ccccc2)c2[nH]ncc12` [Compound 102, N-(4-amino-1H-pyrazolo[4,3-c]pyridin-7-yl)-N′-benzyl-N′-(3,3,3-trifluoropropyl)oxamide], for which, in test [1], the IC50 fell in the range of 0.005 to 0.05 µM, the IC90 is over 0.125 µM and the “Hap1 MTAP intact/deleted ratio” value is recorded as “A (IC50 ratio greater than or equal to 30 fold)”. Also, the IC50 in test [2] fell in the range of 0.1 to 1 µM. In addition, the IC50 in test [3] is over 0.05 µM.

The term IC50 denotes the concentration at which inhibition is half-maximal. By IC90 is commonly meant the point of the concentration-response curve where the effect stands at 90%.
